Assays:
ACO1, Ma01_g11540 = test: Trait co-editing in selected embryos (PBE #3); type: cell-based, banana; details: G418 selection
Procedure: (§1) We transformed ECS as described previously in Example 6, using the new co-editing plasmids detailed in Table 11 above. Embryos were regenerated as detailed previously, either on media without selection, with 25 mg/L G418, 25 μg/L CSF or 50 μg/L CSF. Initial genotyping of all plasmids tested:
(§2) • All with CsVMV-rAPOBEC1 CBE (rAPOBEC+nCas9 (D10A) PBE from Zong et al. 2017*) and nosP-NptII • pMol_0925 (sgGFP-pNOS::Kan::tOCS-pCsVMV::nCas9PBE1::tg7-Dummy-pTaU6::sg1GFP_58-pTaU6::sg2GFP_59) • pMol_0934 (sgGFP, sgALS1-pNOS::Kan::tOCS-pCsVMV::nCas9PBE1::tg7-taU6::MaALS1sg2_2021-pTaU6::sg1GFP_58-pTaU6::sg2GFP_59) • pMol_0935 (sgGFP, sgALS2-pNOS::Kan::tOCS-pCsVMV::nCas9PBE1::tg7-taU6::MaALS2sg2_2023-pTaU6::sg1GFP_58-pTaU6::sg2GFP_59) • pMol_0926 (sgPPO2, sgALS1-pNOS::Kan::tOCS-pCsVMV::nCas9PBE1::tg7-taU6::MaALS1sg2_2021-pTaU6::sg1PPO2_2961-pTaU6::sg2PPO2_2962-pTaU6::sg3PPO2_2963) • pMol_0927 (sgPPO2, sgALS1-pNOS::Kan::tOCS-pCsVMV::nCas9PBE1::tg7-taU6::MaALS1sg2_2021-pTaU6::sg3PPO2_2963-pTaU6::sg4PPO2_2964) • pMol_0928 (sgACO1, sgALS1-pNOS::Kan::tOCS-pCsVMV::nCas9PBE1::tg7-taU6::MaALS1sg2_2021-pTaU6::sg1ACO1_2965-pTaU6::sg2ACO1_2966-pTaU6::sg3ACO1_2967) • pMol_0929 (sgPPO2, sgALS2-pNOS::Kan::tOCS-pCsVMV::nCas9PBE1::tg7-taU6::MaALS2sg2_2023-pTaU6::sg1PPO2_2961-pTaU6::sg2PPO2_2962-pTaU6::sg3PPO2_2963) • pMol_0930 (sgPPO2, sgALS2-pNOS::Kan::tOCS-pCsVMV::nCas9PBE1::tg7-taU6::MaALS2sg2_2023-pTaU6::sg3PPO2_2963-pTaU6::sg4PPO2_2964) • pMol_0931 (sgACO1, sgALS2-pNOS::Kan::tOCS-pCsVMV::nCas9PBE1::tg7-taU6::MaALS2sg2_2023-pTaU6::sg1ACO1_2965-pTaU6::sg2ACO1_2966-pTaU6::sg3ACO1_2967) ECS were left to ‘recover’ after transformation for 1 week in CS+cefo 300 mg/L. We regenerated embryos in 4 different conditions: • 1. No selection • 2. Stable G418 selection (in EDM only 2-3 months) from PBE #3 only (PBE #1/2 plasmids only have mCherry, not NptII) • 3. 25 μg/L chlorsulfuron (in EDM only 2-3 months) • 4. 50 μg/L chlorsulfuron (in EDM only 2-3 months)
(§3) gDNA from embryos and plantlets was extracted and qPCR was used to test for the presence of integrated tDNA in the plant genome. Three independent qPCRs were run on each sample with different sets of primers (listed below) spanning the tDNA, ranging from the left to right border. An additional qPCR was run on an endogenous banana gene (actin) for normalisation of Ct values. All qPCRs were run on the LightCycler® 96 System (Roche) using PowerUp™ SYBR® Green Master Mix (Thermo Fisher Scientific™).
(§4) For edit validation, amplicons for each target gene (als1, als2, ppo2, aco1) were made using Q5® High-Fidelity 2× Master Mix (New England Biolabs, NEB) using reaction settings listed below. PCR products were purified using Monarch® PCR & DNA Cleanup Kit (NEB) according to manufacturer's specifications. The amplicons were after validated by Sanger sequencing.

PPO2, Ma07_g03540 = test: Trait co-editing in selected embryos (PBE #3); type: cell-based, banana; details: G418 selection
Procedure: as §1, §2, §3, §4

[1] = tested on: banana embryos or leaf material; test: Comparison of selection using ALS inhibitor, G418 or hygromycin (genotyping of embryos or leaf material); type: cell-based; details: embryos
Excerpt: In every case, regenerated material was transformed with constructs containing T-DNA that would generate resistance in positive transformants.

## CN[C@@H]1[C@@H](O)[C@@H](O[C@@H]2[C@@H](O)[C@H](O[C@H]3O[C@H]([C@@H](C)O)[C@@H](O)[C@H](O)[C@H]3N)[C@@H](N)C[C@H]2N)OC[C@]1(C)O [Plasmid G418]
ACO1, Ma01_g11540
  Percentage edited ACO1 embryos: 33.33
ACO1, Ma01_g11540; 6 embryos tested
  ACO1 edited embryos total: 2
PPO2, Ma07_g03540
  Percentage edited PPO2 embryos: 31.25
PPO2, Ma07_g03540; 16 embryos tested
  PPO2 edited embryos total: 5
[1]; stable selection
  Editing frequency: 17/28 = 60.7%
  Transgenic frequency: 18/28 = 64.3%
[1]; transient selection
  Editing frequency: 35/867 = 4.0%
  Non-transgenic edited: 0/774 = 0%
  Transgenic frequency: 95/943 = 10.1%

Source: patent publication US20250034586A1, “METHOD FOR EDITING BANANA GENES” (Tropic Biosciences UK Limited, priority 2021, published 2025)
